A word on the IC50: it is the concentration at which inhibition is half-maximal. Low values mean inhibition by little substance, high ones a need for much substance.

IC50 data for 14 molecules are collected here from patent US12344595B2, “2-amino-n-phenyl-nicotinamides as NAV1.8 inhibitors” (Merck Sharp & Dohme LLC, priority 2018, dated 2025).

The assay addresses human Nav1.8 (Homo sapiens (Human), UniProt Q9Y5Y9). The assay can be described thus: Nav1.8 Qube automated patch-clamp assay. It is filed as cell-based. Conditions: Nav1.8 Qube Assay; human Nav1.8 channels stably expressed in HEK 293 cells. In outline:
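Whole-cell automated patch clamp was run at room temperature on HEK293 cells stably expressing the channel. A 1 Hz, 10 s train of 20 ms pulses to 10 mV from −90 mV (repolarizing to −67 mV) was applied. Peak currents at the 1st and 10th pulses gave resting and inactivated-state IC50 values by Hill fit.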

Chain of human Nav1.8 (Q9Y5Y9 whole entry): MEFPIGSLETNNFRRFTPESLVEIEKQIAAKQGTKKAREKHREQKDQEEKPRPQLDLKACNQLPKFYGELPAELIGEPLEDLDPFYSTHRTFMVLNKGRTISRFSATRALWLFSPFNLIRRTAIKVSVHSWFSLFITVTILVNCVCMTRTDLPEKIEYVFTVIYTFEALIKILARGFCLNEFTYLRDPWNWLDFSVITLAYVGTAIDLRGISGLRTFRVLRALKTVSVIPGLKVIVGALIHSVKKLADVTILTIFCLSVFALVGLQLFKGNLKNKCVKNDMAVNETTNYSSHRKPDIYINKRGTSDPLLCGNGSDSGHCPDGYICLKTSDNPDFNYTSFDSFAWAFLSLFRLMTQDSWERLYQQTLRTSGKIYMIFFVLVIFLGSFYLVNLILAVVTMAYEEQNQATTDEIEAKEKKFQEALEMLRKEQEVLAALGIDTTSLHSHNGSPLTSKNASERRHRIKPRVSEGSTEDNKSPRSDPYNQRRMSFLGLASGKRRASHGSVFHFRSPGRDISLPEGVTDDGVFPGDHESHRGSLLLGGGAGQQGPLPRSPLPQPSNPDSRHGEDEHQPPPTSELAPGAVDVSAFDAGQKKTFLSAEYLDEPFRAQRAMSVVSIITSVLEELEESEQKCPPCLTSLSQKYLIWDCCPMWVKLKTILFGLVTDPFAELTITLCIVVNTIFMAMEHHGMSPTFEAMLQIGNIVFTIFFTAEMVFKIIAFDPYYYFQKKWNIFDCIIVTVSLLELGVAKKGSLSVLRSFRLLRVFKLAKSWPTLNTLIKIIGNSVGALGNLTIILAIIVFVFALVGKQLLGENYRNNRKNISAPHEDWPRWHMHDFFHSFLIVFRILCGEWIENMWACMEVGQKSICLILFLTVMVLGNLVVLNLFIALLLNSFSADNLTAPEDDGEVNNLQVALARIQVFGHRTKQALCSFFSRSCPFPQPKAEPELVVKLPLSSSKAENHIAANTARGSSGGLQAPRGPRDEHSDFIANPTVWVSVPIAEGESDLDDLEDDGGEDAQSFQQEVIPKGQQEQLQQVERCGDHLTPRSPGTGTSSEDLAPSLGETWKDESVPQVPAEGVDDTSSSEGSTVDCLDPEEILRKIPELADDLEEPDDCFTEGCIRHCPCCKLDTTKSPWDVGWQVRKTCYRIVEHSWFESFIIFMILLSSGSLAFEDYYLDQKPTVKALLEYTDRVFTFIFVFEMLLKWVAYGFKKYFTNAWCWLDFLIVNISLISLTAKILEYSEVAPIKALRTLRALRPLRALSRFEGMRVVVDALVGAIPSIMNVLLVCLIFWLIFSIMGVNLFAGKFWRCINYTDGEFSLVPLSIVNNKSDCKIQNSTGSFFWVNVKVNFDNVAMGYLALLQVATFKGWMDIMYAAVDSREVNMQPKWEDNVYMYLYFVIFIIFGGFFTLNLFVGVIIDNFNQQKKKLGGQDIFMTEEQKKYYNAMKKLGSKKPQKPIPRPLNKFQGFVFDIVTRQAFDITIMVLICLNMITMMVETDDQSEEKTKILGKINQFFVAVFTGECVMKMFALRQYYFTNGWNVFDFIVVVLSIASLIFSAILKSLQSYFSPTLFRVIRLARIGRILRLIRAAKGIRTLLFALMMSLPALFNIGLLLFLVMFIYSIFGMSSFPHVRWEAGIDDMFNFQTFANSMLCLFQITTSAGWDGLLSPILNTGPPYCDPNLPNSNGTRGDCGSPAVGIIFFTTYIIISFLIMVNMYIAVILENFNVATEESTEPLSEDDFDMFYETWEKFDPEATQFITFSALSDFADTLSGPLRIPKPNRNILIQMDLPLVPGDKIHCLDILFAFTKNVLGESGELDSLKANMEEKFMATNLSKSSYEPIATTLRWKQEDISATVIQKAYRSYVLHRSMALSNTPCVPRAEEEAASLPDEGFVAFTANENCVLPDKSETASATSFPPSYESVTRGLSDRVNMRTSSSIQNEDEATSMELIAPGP

With `NS(=O)(=O)c1c(F)ccc(NC(=O)c2cc(C(F)(F)F)cnc2N2CCC(F)(F)CC2)c1F` [Example 28, N-(2,4-difluoro-3-sulfamoylphenyl)-2-(4,4-difluoropiperidin-1-yl)-5-(trifluoromethyl)nicotinamide], the IC50 was determined as 211 nM. For `CS(=O)(=O)c1cccc(NC(=O)c2cc(C(F)(F)C(F)(F)F)cnc2N2CCCCCC2)c1` [Example 166, 2-(azepan-1-yl)-N-(3-methylsulfonylphenyl)-5-(1,1,2,2,2-penta-fluoroethyl)pyridine-3-carboxamide] the value was 30 nM; for `Cc1ccc(C(=O)Nc2cccc(S(N)(=O)=O)c2)c(N2CCCCCC2)n1` [Example 90, 2-(azepan-1-yl)-6-methyl-N-(3-sulfamoyl-phenyl)pyridine-3-carboxamide], 17 nM; for `O=C(Nc1cccc(S(=O)(=O)C2CCCC2)c1)c1cc(C(F)(F)F)cnc1N1CCCCCC1` [Example 120, 2-(azepan-1-yl)-N-(3-cyclopentylsulfonylphenyl)-5-(trifluoro-methyl)-pyridine-3-carboxamide], 3020 nM.

In the case of `CN1Cc2ccc(NC(=O)c3cc(C(F)(F)F)cnc3N3CCCCCC3)cc2S1(=O)=O` [Example 122, 2-(azepan-1-yl)-3-((2-methyl-1,1-dioxido-2,3-dihydrobenzo[d]isothiazol-6-yl)-carbamoyl)-5-(trifluoromethyl)pyridine], the IC50 stood at 9140 nM.

`COc1nc(N2CCCCCC2)c(C(=O)Nc2cccc(S(N)(=O)=O)c2)cc1C` [Example 155, 2-(azepan-1-yl)-6-methoxy-5-methyl-N-(3-sulfamoylphenyl)nicotinamide]: the IC50 turned out to be 32 nM. For `NS(=O)(=O)c1ccc(F)c(NC(=O)c2cc(C(F)(F)F)cnc2N2CCCCC2)c1` [Example 116, N-(2-fluoro-5-sulfamoyl-phenyl)-2-(1-piperidyl)-5-(tri-fluoromethyl)pyridine-3-carboxamide] the value was 3000 nM; for `NS(=O)(=O)c1cccc(NC(=O)c2cc(C(F)(F)F)cnc2N2CCCC(O)CC2)c1` (centres unmarked) [Example 65, 2-(4-hydroxyazepan-1-yl)-N-(3-sulfamoyl-phenyl)-5-(trifluoro-methyl)pyridine-3-carboxamide], 2210 nM. `NS(=O)(=O)c1cccc(NC(=O)c2cc(C(F)(F)F)cnc2N2C[C@@H]3[C@H](C2)C(F)(F)C3(F)F)c1` [Example 133, N-(3-sulfamoylphenyl)-2-[(1R,5S)-6,6,7,7-tetrafluoro-3-azabicyclo-[3.2.0]heptan-3-yl]-5-(trifluoromethyl)-pyridine-3-carboxamide] returned an IC50 of 21 nM. To `Cc1ccc(C(=O)Nc2cccc(S(C)(=O)=O)c2)c(N2CCCC(F)(F)CC2)n1` [Example 10, 2-(4,4-difluoroazepan-1-yl)-6-methyl-N-(3-methylsulfonylphenyl) pyridine-3-carboxamide] belongs 9.2 nM; to `NC(=O)c1cccc(NC(=O)c2cc(C(F)(F)F)cnc2N2CC3CCC(F)(F)C3C2)c1` (centres unmarked) [Example 108, N-(3-carbamoylphenyl)-2-(4,4-difluoro-1,3,3a,- 5,6,6a-hexahydrocyclo-penta[c]pyrrol-2-yl)-5-(trifluoromethyl)-pyridine-3-carboxamide], 148 nM. For `NS(=O)(=O)c1cccc(NC(=O)c2cc(C(F)(F)F)cnc2N2CCCO[C@@H](C(F)(F)F)C2)c1` [Example 144, (R)—N-(3-sulfamoylphenyl)-5-(trifluoromethyl)-2-(2-(trifluoromethyl)-1,4-oxazepan-4-yl) nicotinamide] the value was 502 nM; for `Cc1cc(Cl)c(C(=O)Nc2cccc(S(N)(=O)=O)c2)c(N2CCCCCC2)n1` [Example 158, 2-(azepan-1-yl)-4-chloro-6-methyl-N-(3-sulfamoylphenyl)-pyridine-3-carboxamide], 910 nM; for `Cc1cnc(N2CCCCCC2)c(C(=O)Nc2cccc(S(N)(=O)=O)c2)c1` [Example 23, 2-(azepan-1-yl)-5-methyl-N-(3-sulfamoyl-phenyl)nicotinamide], 112 nM.
